Results taken from ChEMBL document CHEMBL1687887, “Evolution of potent and stable placental-growth-factor-1-targeting CovX-bodies from phage display peptide discovery” (J Med Chem, 2011).
Numbered stars: 1 amine (or outer) side, 2 acyl side, 3 side chain; on linkers, the order of the positions; unused ones are H or OH. Bridge positions count the residues as written; N and C are the ends. Square brackets hold non-standard residues; d marks the D form. Peptide text beside a SMILES is read from it. * marks the point of attachment. X2 = NCCCC[C@H](N[*:1])C(=O)NC(=O)COCC(=O)[*:2]; X1 = O=C(COCC(=O)*)Nc1ccc(CCC(=O)N2CCC2=O)cc1; X3 = O=C(CCc1ccc(N*)cc1)N1CCC1=O; Aad = N[C@@H](CCCC(=O)O)C(=O)O

Columns and labels:
Placenta growth factor [1] = target: T1, Placenta growth factor (Homo sapiens, UniProt P49763); test: Inhibition of human PlGF-1-VEGFR-1 interaction by ELISA
T1 sequence (P49763 whole entry): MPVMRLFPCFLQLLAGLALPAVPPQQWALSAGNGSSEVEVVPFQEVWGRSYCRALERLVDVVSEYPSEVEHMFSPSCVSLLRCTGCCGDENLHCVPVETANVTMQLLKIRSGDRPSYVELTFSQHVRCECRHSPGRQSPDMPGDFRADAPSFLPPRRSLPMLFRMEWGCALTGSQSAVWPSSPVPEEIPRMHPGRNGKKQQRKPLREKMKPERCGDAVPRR

Placenta growth factor [2] = target: T1, Placenta growth factor; test: Binding affinity to human PlGF-1

Compound | IC50 (Placenta growth factor [1]) | also measured
CC[C@H](C)[C@H](NC(=O)[C@H](C)NC(=O)[C@H](CC(C)C)NC(=O)[C@@H]1CSSC[C@H](NC(=O)[C@@H](NC(=O)[C@H](CC(=O)O)NC(=O)[C@H](CC(C)C)NC(C)=O)C(C)C)C(=O)N[C@@H](CC(C)C)C(=O)N[C@@H](Cc2c[nH]c3ccccc23)C(=O)N[C@@H](C(C)C)C(=O)N[C@@H](CO)C(=O)N[C@@H](CC(C)C)C(=O)N2CCC[C@H]2C(=O)N[C@@H](Cc2cnc[nH]2)C(=O)N1)C(N)=O (Ac-LDVCLWVSLPHCLAI-NH2; disulfide 4-12) | 100 µM | 
CC[C@H](C)[C@H](NC(=O)[C@@H]1CSSC[C@H](NC(=O)[C@@H](NC(=O)[C@H](CCC(N)=O)NC(=O)[C@H](Cc2c[nH]c3ccccc23)NC(C)=O)[C@@H](C)CC)C(=O)N[C@@H](CC(=O)O)C(=O)N[C@@H]([C@@H](C)CC)C(=O)N[C@@H](CC(C)C)C(=O)N[C@@H]([C@@H](C)O)C(=O)N[C@@H](CC(C)C)C(=O)N2CCC[C@H]2C(=O)N[C@@H](Cc2cnc[nH]2)C(=O)N1)C(=O)N[C@@H](Cc1ccccc1)C(=O)N[C@@H](CC(N)=O)C(N)=O (Ac-WQICDILTLPHCIFN-NH2; disulfide 4-12) | 100 µM | 
CSCC[C@H](NC(=O)[C@@H](NC(=O)[C@H](CCCNC(=N)N)NC(=O)[C@@H]1CSSC[C@H](NC(=O)[C@@H](NC(=O)[C@H](CC(=O)O)NC(=O)[C@H](Cc2ccccc2)NC(C)=O)C(C)C)C(=O)N[C@@H](CCCCN)C(=O)N[C@@H](Cc2c[nH]c3ccccc23)C(=O)N[C@@H](C(C)C)C(=O)N[C@@H]([C@@H](C)O)C(=O)N[C@@H](CC(C)C)C(=O)N2CCC[C@H]2C(=O)N[C@@H](Cc2cnc[nH]2)C(=O)N1)C(C)C)C(N)=O (Ac-FDVCKWVTLPHCRVM-NH2; disulfide 4-12) | 5 µM | 
N=C(N)NCCC[C@@H]1NC(=O)[C@H](CCCCNC(=O)COCC(=O)Nc2ccc(CCC(=O)N3CCC3=O)cc2)NC(=O)[C@@H](Cc2ccccc2)NC(=O)[C@H](CC(=O)O)NC(=O)CNC1=O |  | Kd (Placenta growth factor [2]): Not Active
CSCC[C@H](NC(=O)[C@@H](NC(=O)[C@H](CCCCNC(C)=O)NC(=O)[C@@H]1CSSC[C@H](NC(=O)[C@@H](NC(=O)[C@H](CC(=O)O)NC(=O)[C@H](Cc2ccccc2)NC(=O)COCC(=O)Nc2ccc(CCC(=O)N3CCC3=O)cc2)C(C)C)C(=O)N[C@@H](CC(N)=O)C(=O)N[C@@H](Cc2c[nH]c3ccccc23)C(=O)N[C@@H](C(C)C)C(=O)N[C@@H]([C@@H](C)O)C(=O)N[C@@H](CC(C)C)C(=O)N2CCC[C@H]2C(=O)N[C@@H](Cc2cnc[nH]2)C(=O)N1)C(C)C)C(N)=O (X1-FDVCNWVTLPHCK(Ac)VM-NH2; disulfide 4-12) |  | Kd (Placenta growth factor [2]; read-out: Kd): > 1 µM
CSCC[C@H](NC(=O)[C@@H](NC(=O)[C@H](CCCN=C(N)N)NC(=O)[C@@H]1CSSC[C@H](NC(=O)[C@@H](NC(=O)[C@H](CC(=O)O)NC(=O)[C@H](Cc2ccccc2)NC(C)=O)C(C)C)C(=O)N[C@@H](CC(N)=O)C(=O)N[C@@H](Cc2c[nH]c3ccccc23)C(=O)N[C@@H](C(C)C)C(=O)NCC(=O)N[C@@H](CC(C)C)C(=O)N[C@@H](C)C(=O)N[C@@H](Cc2cnc[nH]2)C(=O)N1)C(C)C)C(N)=O (Ac-FDVCNWVGLAHCRVM-NH2; disulfide 4-12) | 5 µM | 
CSCC[C@H](NC(=O)[C@H](Cc1ccccc1)NC(C)=O)C(=O)N[C@H](C(=O)N[C@H]1CSSC[C@@H](C(=O)N2CCC[C@H]2C(=O)N[C@@H](CCSC)C(=O)N[C@@H](CCC(N)=O)C(N)=O)NC(=O)[C@H](Cc2c[nH]c3ccccc23)NC(=O)[C@@H]2CCCN2C(=O)[C@H](CC(C)C)NC(=O)[C@H]([C@@H](C)O)NC(=O)[C@H](C(C)C)NC(=O)[C@H](Cc2ccc(O)cc2)NC(=O)[C@H](CC(N)=O)NC1=O)C(C)C (Ac-FMVCNYVTLPWCPMQ-NH2; disulfide 4-12) | 19 µM | 
CC[C@H](C)[C@H](NC(=O)[C@H](CC(=O)O)NC(=O)[C@H](Cc1ccc(O)cc1)NC(C)=O)C(=O)N[C@H]1CSSC[C@@H](C(=O)N[C@@H](CCCN=C(N)N)C(=O)N[C@@H](C)C(=O)N[C@H](C(N)=O)C(C)C)NC(=O)[C@H](Cc2cnc[nH]2)NC(=O)[C@@H]2CCCN2C(=O)[C@H](CC(C)C)NC(=O)[C@H](CCCNC(=N)N)NC(=O)[C@H]([C@@H](C)CC)NC(=O)[C@H](Cc2ccc(O)cc2)NC(=O)[C@H](CCCCN)NC1=O (Ac-YDICKYIRLPHCRAV-NH2; disulfide 4-12) | 9 µM | 
CC[C@H](C)[C@H](NC(=O)[C@H](CC(=O)O)NC(=O)[C@H](Cc1ccc(O)cc1)NC(C)=O)C(=O)N[C@H]1CSSC[C@@H](C(=O)N[C@@H](Cc2ccccc2)C(=O)N[C@@H](C)C(=O)N[C@H](C(N)=O)C(C)C)NC(=O)[C@H](Cc2cnc[nH]2)NC(=O)[C@@H]2CCCN2C(=O)[C@H](CC(C)C)NC(=O)[C@H](CCCNC(=N)N)NC(=O)[C@H]([C@@H](C)CC)NC(=O)[C@H](Cc2ccc(O)cc2)NC(=O)[C@H](Cc2cnc[nH]2)NC1=O (Ac-YDICHYIRLPHCFAV-NH2; disulfide 4-12) | 100 µM | 
CC[C@H](C)[C@H](NC(=O)[C@H](CC(=O)O)NC(=O)[C@H](Cc1ccc(O)cc1)NC(C)=O)C(=O)N[C@H]1CSSC[C@@H](C(=O)N[C@@H](CCCCN)C(=O)N[C@@H](C)C(=O)N[C@H](C(N)=O)C(C)C)NC(=O)[C@H](Cc2cnc[nH]2)NC(=O)[C@@H]2CCCN2C(=O)[C@H](CC(C)C)NC(=O)[C@H](CCCNC(=N)N)NC(=O)[C@H]([C@@H](C)CC)NC(=O)[C@H](Cc2ccc(O)cc2)NC(=O)[C@H](CCCCN)NC1=O (Ac-YDICKYIRLPHCKAV-NH2; disulfide 4-12) | 9 µM | 
CSCC[C@H](NC(=O)[C@@H](NC(=O)[C@H](CCCNC(=N)N)NC(=O)[C@@H]1CSSC[C@H](NC(=O)[C@@H](NC(=O)[C@H](CC(=O)O)NC(=O)[C@H](Cc2ccccc2)NC(C)=O)C(C)C)C(=O)N[C@@H](CC(N)=O)C(=O)N[C@@H](Cc2c[nH]c3ccccc23)C(=O)N[C@@H](C(C)C)C(=O)NCC(=O)N[C@@H](CC(C)C)C(=O)N2CCC[C@H]2C(=O)N[C@@H](Cc2cnc[nH]2)C(=O)N1)C(C)C)C(N)=O (Ac-FDVCNWVGLPHCRVM-NH2; disulfide 4-12) | 9 µM | 
CSCC[C@H](NC(=O)[C@@H](NC(=O)[C@H](CCCCNC(C)=O)NC(=O)[C@@H]1CSSC[C@H](NC(=O)[C@@H](NC(=O)[C@H](CC(=O)O)NC(=O)[C@H](CCCCNC(=O)COCC(=O)Nc2ccc(CCC(=O)N3CCC3=O)cc2)NC(C)=O)C(C)C)C(=O)N[C@@H](CC(N)=O)C(=O)N[C@@H](Cc2c[nH]c3ccccc23)C(=O)N[C@@H](C(C)C)C(=O)N[C@@H]([C@@H](C)O)C(=O)N[C@@H](CC(C)C)C(=O)N2CCC[C@H]2C(=O)N[C@@H](Cc2cnc[nH]2)C(=O)N1)C(C)C)C(N)=O (Ac-K(X1)DVCNWVTLPHCK(Ac)VM-NH2; disulfide 4-12) |  | Kd (Placenta growth factor [2]; read-out: Kd): > 1 µM
CSCC[C@H](NC(=O)[C@@H](NC(=O)[C@H](CCCCN)NC(=O)[C@@H]1CSSC[C@H](NC(=O)[C@@H](NC(=O)[C@H](CC(=O)O)NC(=O)[C@H](Cc2ccccc2)NC(C)=O)C(C)C)C(=O)N[C@@H](CC(N)=O)C(=O)N[C@@H](Cc2c[nH]c3ccccc23)C(=O)N[C@@H](C(C)C)C(=O)N[C@@H]([C@@H](C)O)C(=O)N[C@@H](CC(C)C)C(=O)N2CCC[C@H]2C(=O)N[C@@H](Cc2cnc[nH]2)C(=O)N1)C(C)C)C(N)=O (Ac-FDVCNWVTLPHCKVM-NH2; disulfide 4-12) | 1 µM | 
CC(=O)NCCCC[C@H](NC(=O)[C@@H]1CSSC[C@H](NC(=O)[C@@H](NC(=O)[C@H](CC(=O)O)NC(=O)[C@H](Cc2ccccc2)NC(C)=O)C(C)C)C(=O)N[C@@H](CC(N)=O)C(=O)N[C@@H](Cc2c[nH]c3ccccc23)C(=O)N[C@@H](C(C)C)C(=O)N[C@@H]([C@@H](C)O)C(=O)N[C@@H](CC(C)C)C(=O)N2CCC[C@H]2C(=O)N[C@@H](Cc2cnc[nH]2)C(=O)N1)C(=O)N[C@H](C(=O)N[C@@H](CCCCN)C(=O)NC(=O)COCC(=O)Nc1ccc(CCC(=O)N2CCC2=O)cc1)C(C)C (Ac-FDVCNWVTLPHCK(Ac)V[X2]-X3; disulfide 4-12) |  | Kd (Placenta growth factor [2]; read-out: Kd): 0.005 µM
CSCC[C@H](NC(=O)[C@H](CCCCN)NC(=O)[C@@H]1CSSC[C@H](NC(=O)[C@@H](NC(=O)[C@H](CC(=O)O)NC(=O)[C@H](Cc2ccccc2)NC(C)=O)C(C)C)C(=O)N[C@@H](CCCCN)C(=O)N[C@@H](Cc2c[nH]c3ccccc23)C(=O)N[C@@H](C(C)C)C(=O)N[C@@H]([C@@H](C)O)C(=O)N[C@@H](CC(C)C)C(=O)N2CCC[C@H]2C(=O)N[C@@H](Cc2cnc[nH]2)C(=O)N1)C(=O)N[C@@H](CCCC(N)=O)C(N)=O (Ac-FDVCKWVTLPHCKM[Aad](NH2)-NH2; disulfide 4-12) | 1 µM | 
CC(=O)NCCCC[C@@H]1NC(=O)[C@@H](NC(=O)[C@@H](NC(=O)[C@H](CC(=O)O)NC(=O)[C@H](Cc2ccccc2)NC(C)=O)C(C)C)CSSC[C@@H](C(=O)N[C@@H](CCCCNC(C)=O)C(=O)N[C@H](C(=O)N[C@@H](CCCCN)C(=O)NC(=O)COCC(=O)Nc2ccc(CCC(=O)N3CCC3=O)cc2)C(C)C)NC(=O)[C@H](Cc2cnc[nH]2)NC(=O)[C@@H]2CCCN2C(=O)[C@H](CC(C)C)NC(=O)[C@H]([C@@H](C)O)NC(=O)[C@H](C(C)C)NC(=O)[C@H](Cc2c[nH]c3ccccc23)NC1=O (Ac-FDVCK(Ac)WVTLPHCK(Ac)V[X2]-X3; disulfide 4-12) |  | Kd (Placenta growth factor [2]; read-out: Kd): 0.008 µM
CSCC[C@H](NC(=O)[C@@H](NC(=O)[C@H](CCCCNC(C)=O)NC(=O)[C@@H]1CSSC[C@H](NC(=O)[C@@H](NC(=O)[C@H](CCCCNC(=O)COCC(=O)Nc2ccc(CCC(=O)N3CCC3=O)cc2)NC(=O)[C@H](Cc2ccccc2)NC(C)=O)C(C)C)C(=O)N[C@@H](CC(N)=O)C(=O)N[C@@H](Cc2c[nH]c3ccccc23)C(=O)N[C@@H](C(C)C)C(=O)N[C@@H]([C@@H](C)O)C(=O)N[C@@H](CC(C)C)C(=O)N2CCC[C@H]2C(=O)N[C@@H](Cc2cnc[nH]2)C(=O)N1)C(C)C)C(N)=O (Ac-FK(X1)VCNWVTLPHCK(Ac)VM-NH2; disulfide 4-12) |  | Kd (Placenta growth factor [2]; read-out: Kd): > 1 µM
